Measured values as given in ChEMBL document CHEMBL1201862, “PubChem BioAssay data set” (2004).
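How tested: cells in 96-well plates exposed to compound for 48 hours at five concentrations. Abbreviation: GI50, concentration required for 50% inhibition of growth.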 Calls of active or inactive are those of the source. No stated cut-off is given here; in the data, active = GI50 up to about 1.1 µM and inactive = higher.

Key:
Test in all cases: DTP human tumour cell line panel, 48 h
A549 = tested on: A549
HCC 2998 = tested on: HCC 2998
IGROV-1 = tested on: IGROV-1
LOX IMVI = tested on: LOX IMVI
NCI-H226 = tested on: NCI-H226
NCI-H460 = tested on: NCI-H460
SF-268 = tested on: SF-268
SF-295 = tested on: SF-295
SK-MEL-5 = tested on: SK-MEL-5
SN12C = tested on: SN12C
SW-620 = tested on: SW-620
U-251 = tested on: U-251
UO-31 = tested on: UO-31
HL-60 = tested on: HL-60
RPMI-8226 = tested on: RPMI-8226

Measured: GI50

O=C(c1ccccc1)c1ccc(OCCOc2ccc(Nc3ccccc3)cc2)cc1
inactive: A549 64.3 µM | HCC 2998 > 100 µM | IGROV-1 52.2 µM | LOX IMVI > 100 µM | NCI-H226 33.6 µM | NCI-H460 65.5 µM | SF-268 27.3 µM | SF-295 27.2 µM | SK-MEL-5 21.9 µM | SN12C 42.3 µM | SW-620 > 100 µM | U-251 16.6 µM | UO-31 > 100 µM

CC(=O)CC(N)=O
inactive: A549 > 100 µM | HCC 2998 > 100 µM | HL-60 > 100 µM | IGROV-1 > 100 µM | NCI-H226 > 100 µM | NCI-H460 > 100 µM | RPMI-8226 > 100 µM | SF-268 > 100 µM | SF-295 > 100 µM | SK-MEL-5 > 100 µM | SN12C > 100 µM | SW-620 > 100 µM | U-251 > 100 µM | UO-31 > 100 µM

C=C1CCC2(C(C)=O)COC1(C)O2 (stereo not drawn)
inactive: A549 > 100 µM | HL-60 > 100 µM | IGROV-1 > 100 µM | LOX IMVI > 100 µM | NCI-H226 > 100 µM | NCI-H460 > 100 µM | RPMI-8226 > 100 µM | SF-295 > 100 µM | SK-MEL-5 > 100 µM | SN12C > 100 µM | SW-620 > 100 µM | U-251 > 100 µM | UO-31 > 100 µM

CCOP12(OCC)NC(=O)OC1(C(F)(F)F)c1ccccc1O2 (stereo not drawn)
inactive: A549 > 100 µM | HL-60 > 100 µM | IGROV-1 > 100 µM | LOX IMVI > 100 µM | NCI-H226 > 100 µM | NCI-H460 > 100 µM | SF-268 > 100 µM | SF-295 > 100 µM | SK-MEL-5 > 100 µM | SN12C > 100 µM | UO-31 > 100 µM

O=c1ncccn1C1C=C(CO)C(O)C1O (stereo not drawn)
inactive: A549 > 50 µM | HCC 2998 > 50 µM | HL-60 > 50 µM | LOX IMVI > 50 µM | NCI-H226 > 50 µM | NCI-H460 > 50 µM | RPMI-8226 > 50 µM | SF-268 > 50 µM | SF-295 > 50 µM | SK-MEL-5 > 50 µM | SW-620 > 50 µM | U-251 > 50 µM | UO-31 > 50 µM

O=S(O)CCCCCSSCCCCSSCCCCCS(=O)O
inactive: A549 > 100 µM | IGROV-1 > 100 µM | LOX IMVI > 100 µM | NCI-H460 > 100 µM | RPMI-8226 97.5 µM | SF-268 > 100 µM | SF-295 > 100 µM | SK-MEL-5 > 100 µM | SN12C > 100 µM | SW-620 > 100 µM | U-251 > 100 µM | UO-31 85.3 µM

C#CCSc1nc(N)c2ncn(C3OC(CO)C(O)C3O)c2n1 (stereo not drawn)
inactive: A549 > 100 µM | HCC 2998 > 100 µM | HL-60 > 100 µM | IGROV-1 > 100 µM | LOX IMVI > 100 µM | NCI-H460 > 100 µM | RPMI-8226 > 100 µM | SF-268 > 100 µM | SF-295 > 100 µM | SK-MEL-5 > 100 µM | SN12C > 100 µM | SW-620 > 100 µM | U-251 > 100 µM | UO-31 > 100 µM

O=C1c2ccccc2C(=O)C12CCc1ccccc12
inactive: A549 > 100 µM | HCC 2998 > 100 µM | HL-60 23.6 µM | IGROV-1 > 100 µM | LOX IMVI > 100 µM | NCI-H460 > 100 µM | SF-268 > 100 µM | SF-295 > 100 µM | SN12C > 100 µM | SW-620 > 100 µM | U-251 > 100 µM | UO-31 > 100 µM

CC1=NN(c2ccccc2)C(=O)/C1=C\c1ccc([N+](=O)[O-])cc1
inactive: A549 35.4 µM | HCC 2998 25.6 µM | HL-60 23.3 µM | IGROV-1 29.6 µM | LOX IMVI 21.1 µM | NCI-H460 34 µM | RPMI-8226 23.6 µM | SF-268 38.6 µM | SF-295 31.1 µM | SK-MEL-5 22.4 µM | SN12C 32.1 µM | SW-620 30.3 µM | U-251 41.3 µM | UO-31 32.3 µM

COc1c(CC(C)=O)c2ccccc2n1C(C)=O
inactive: A549 > 100 µM | HCC 2998 > 100 µM | HL-60 > 100 µM | IGROV-1 > 100 µM | NCI-H460 > 100 µM | RPMI-8226 > 100 µM | SF-295 > 100 µM | SN12C > 100 µM | SW-620 > 100 µM | U-251 > 100 µM | UO-31 > 100 µM

CC(C)CN1CC(C)C(=O)NC1=O (stereo not drawn)
inactive: A549 > 100 µM | HL-60 > 100 µM | LOX IMVI > 100 µM | NCI-H226 > 100 µM | NCI-H460 > 100 µM | SF-268 > 100 µM | SF-295 > 100 µM | SK-MEL-5 > 100 µM | SN12C > 100 µM | SW-620 > 100 µM | U-251 > 100 µM | UO-31 > 100 µM

NC(=O)CCC(NC(=O)Cc1ccccc1)C(=O)O (stereo not drawn)
inactive: A549 > 2470 µM | HCC 2998 > 2470 µM | HL-60 > 2470 µM | IGROV-1 1610 µM | RPMI-8226 1030 µM | SF-268 1420 µM | SF-295 1740 µM | SK-MEL-5 > 2470 µM | SN12C > 2470 µM | SW-620 > 2470 µM | U-251 2000 µM | UO-31 667 µM

COC1C2c3ccccc3C(C#N)(Cc3ccc4c(c32)OCO4)N1C(=O)c1ccccc1 (stereo not drawn)
inactive: HCC 2998 37.9 µM | HL-60 8.57 µM | IGROV-1 13 µM | LOX IMVI > 100 µM | NCI-H226 12.5 µM | NCI-H460 25.9 µM | RPMI-8226 16.3 µM | SF-268 > 100 µM | SF-295 > 100 µM | SK-MEL-5 3.76 µM | SN12C > 100 µM | SW-620 32.8 µM | U-251 37.7 µM | UO-31 31.7 µM

O=C(CSc1nnc(Cc2ccccc2)o1)Nc1ccccc1
inactive: A549 > 100 µM | HCC 2998 > 100 µM | HL-60 > 100 µM | IGROV-1 > 100 µM | LOX IMVI > 100 µM | NCI-H226 > 100 µM | NCI-H460 > 100 µM | RPMI-8226 > 100 µM | SF-268 > 100 µM | SF-295 > 100 µM | SK-MEL-5 > 100 µM | SN12C > 100 µM | U-251 > 100 µM | UO-31 > 100 µM

O=C1Oc2cc3c(c4cccc1c24)OCN(c1ccccc1)C3
inactive: A549 > 100 µM | HCC 2998 > 100 µM | HL-60 43.5 µM | IGROV-1 > 100 µM | LOX IMVI 43.7 µM | NCI-H460 > 100 µM | RPMI-8226 35.1 µM | SF-268 > 100 µM | SF-295 > 100 µM | SK-MEL-5 > 100 µM | SN12C > 100 µM | SW-620 83.9 µM | U-251 > 100 µM | UO-31 > 100 µM
